System: 945468-187-T-J2-PDC spheroids viability
Test: Anticancer human tumor 945468-187-T-J2-PDC patient-derived rectal carcinoma cell line growth inhibition [PI3K]
Details: spheroids with HUVEC and MSC; for IC50: curve of first compound; for viability, T/C: stronger effect = lower value
From the text: Combinatorial screen of targeted agents with the PI3K inhibitors inavolisib, alpelisib, duvelisib, and copanlisib in multi-cell type tumor spheroids
A high-throughput screen of multi-cell type tumor spheroids was designed to identify active combinations of targeted small molecules and PI3K pathway inhibitors. Complex spheroids include a stromal component modeled by human endothelial cells (HUVEC) and fibroblasts modeled by human mesenchymal stem cells (MSCs). The concentration ranges selected for each drug and investigational agent were based upon clinically achievable concentrations if the clinical Cmax of the agent was known.
Compounds. The drugs and investigational agents: inavolisib (NSC800729), alpelisib (NSC765974), duvelisib (NSC772469), copanlisib (NSC816437), ipatasertib (NSC767898), afuresertib (NSC778305), talazoparib (NSC767125), sapanisertib (NSC764658), selumetinib (NSC741078), tovorafenib (DAY101, NSC766906), vemurafenib (NSC761431), ravoxertinib (NSC781343), sotorasib (NSC818433), MRTX1133 (NSC 836407), abemaciclib (NSC 768073), palbociclib (NSC758247), venetoclax (NSC 766270), SY5609 (NSC837396), enzalutamide (NSC755605), and darolutamide (NSC825331), were obtained from the National Cancer Institute (NCI) Developmental Therapeutics Program Chemical Repository. The FDA-approved anticancer drug set is available from the NCI Developmental Therapeutics Program. […] The stock solutions were prepared in dimethyl sulfoxide (DMSO, Sigma-Aldrich, St. Louis, MO, cat. D2650) at 800-fold the tested concentration and stored at -70 degrees C prior to their use. All drugs and investigational agents were tested over a range starting from a high concentration at or near the clinical Cmax and decreasing in half-log increments. If the clinical Cmax for an agent had not been determined, the highest concentration tested was 10 microM.
Cell Culture. All cells were maintained in an incubator at 37 degrees C and 5% CO2 with 95% humidity. The PDC lines were cultured according to standard operating procedures established by the NCI PDMR (https://pdmr.cancer.gov/sops/default.htm). All PDCs were thawed and cultured in Matrigel-coated flasks prepared with a working solution of 1X Ham's F-12 nutrient mix, without supplementation (Invitrogen, Waltham, MA, cat. 11765054), 100 U/mL penicillin-streptomycin (Invitrogen, cat. 15140122), and 2.5% Matrigel (Corning Inc., Corning, NY, cat. 354248) for the first three passages. The 354836-022-R-J1-PDC, 475296-252-R-J1-PDC, and 997726-040-R-J2-PDC lines were cultured in 6A media, which includes advanced DMEM/F-12 (Thermo Fisher Scientific, cat. 12634028), 10 mM HEPES (Thermo Fisher Scientific, cat. 15630080), 1X GlutaMAX supplement (Thermo Fisher Scientific, cat. 35050061), 0.1 mg/mL primocin (InvivoGen, San Diego, CA, cat. ant-pm-2), 10% defined fetal bovine serum, heat inactivated (HyClone Laboratories Inc., Logan, UT, cat. SH30070.03HI), 50% L-WRN conditioned media (ATCC, cat. CRL-3276), 1.25 mM N-Acetyl-L-cysteine (Sigma-Aldrich, cat. A9165), 10 mM nicotinamide (Sigma-Aldrich, cat. N0636), 1X B-27 supplement (Thermo Fisher Scientific, cat. 17504044), 1X N-2 supplement (Thermo Fisher Scientific, cat. 17502048), and 10 microM Y-27632 dihydrochloride (Tocris Bioscience, Bristol, United Kingdom, cat. 1254). The 624824-186-R-J2-PDC line was cultured in 6C/Colon 1B media, which includes all 6A media components plus 50 ng/mL human EGF recombinant protein (Thermo Fisher Scientific, cat. PHG0311). […]
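Also: spheroids exposed to compounds for seven days before reading.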

IC50 (second compound 0.00316 µM): > 3 µM
IC50 (second compound 0.01 µM): > 3 µM
IC50 (second compound 0.0316 µM): > 3 µM
IC50 (second compound 0.1 µM): > 3 µM
IC50 (second compound 0.316 µM): > 3 µM
IC50 (second compound 1 µM): 0.714 µM
SMILES: Cn1cnc2c(F)c(Nc3ccc(Br)cc3Cl)c(C(=O)NOCCO)cc21 + CC(Nc1ccc2c(c1)OCCn1cc(N3C(=O)OCC3C(F)F)nc1-2)C(N)=O
viability, T/C (second compound 0.00316 µM, first compound 0.00949 µM): 121%
viability, T/C (second compound 0.00316 µM, first compound 0.03 µM): 86.4%
viability, T/C (second compound 0.00316 µM, first compound 0.0949 µM): 114%
viability, T/C (second compound 0.00316 µM, first compound 0.3 µM): 75.8%
viability, T/C (second compound 0.00316 µM, first compound 0.949 µM): 70.7%
viability, T/C (second compound 0.00316 µM, first compound 3 µM): 74.5%
viability, T/C (second compound 0.01 µM, first compound 0.00949 µM): 92.2%
viability, T/C (second compound 0.01 µM, first compound 0.03 µM): 101%
viability, T/C (second compound 0.01 µM, first compound 0.0949 µM): 92.2%
viability, T/C (second compound 0.01 µM, first compound 0.3 µM): 89.4%
viability, T/C (second compound 0.01 µM, first compound 0.949 µM): 74.9%
viability, T/C (second compound 0.01 µM, first compound 3 µM): 78.5%
viability, T/C (second compound 0.0316 µM, first compound 0.00949 µM): 121%
viability, T/C (second compound 0.0316 µM, first compound 0.03 µM): 99.6%
viability, T/C (second compound 0.0316 µM, first compound 0.0949 µM): 112%
viability, T/C (second compound 0.0316 µM, first compound 0.3 µM): 93.7%
viability, T/C (second compound 0.0316 µM, first compound 0.949 µM): 78.8%
viability, T/C (second compound 0.0316 µM, first compound 3 µM): 74.5%
viability, T/C (second compound 0.1 µM, first compound 0.00949 µM): 88.9%
viability, T/C (second compound 0.1 µM, first compound 0.03 µM): 102%
viability, T/C (second compound 0.1 µM, first compound 0.0949 µM): 81.2%
viability, T/C (second compound 0.1 µM, first compound 0.3 µM): 80.4%
viability, T/C (second compound 0.1 µM, first compound 0.949 µM): 75.1%
viability, T/C (second compound 0.1 µM, first compound 3 µM): 74.2%
viability, T/C (second compound 0.316 µM, first compound 0.00949 µM): 69.9%
viability, T/C (second compound 0.316 µM, first compound 0.03 µM): 88.6%
viability, T/C (second compound 0.316 µM, first compound 0.0949 µM): 72.4%
viability, T/C (second compound 0.316 µM, first compound 0.3 µM): 75.6%
viability, T/C (second compound 0.316 µM, first compound 0.949 µM): 75.9%
viability, T/C (second compound 0.316 µM, first compound 3 µM): 66.1%
viability, T/C (second compound 1 µM, first compound 0.00949 µM): 75.7%
viability, T/C (second compound 1 µM, first compound 0.03 µM): 72%
viability, T/C (second compound 1 µM, first compound 0.0949 µM): 72.8%
viability, T/C (second compound 1 µM, first compound 0.3 µM): 65.2%
viability, T/C (second compound 1 µM, first compound 0.949 µM): 45%
viability, T/C (second compound 1 µM, first compound 3 µM): 37.6%

Source: PubChem BioAssay AID1963972 (Molecular Pharmacology Branch, DTP, NCI, 2024)
